Measured values from US7040746B2, “Inkjet ink having yellow dye mixture” (Lexmark International, Inc., priority 2003, dated 2006).

Tests used:
Type in all cases: physicochemical
[1] = CIELAB color data and optical density of printed ink patches (Gretag-McBeth Spectolino/Spectrascan); conditions: dye alone in ink
From the text: CIELAB Color System-Space: The CIELAB color system was established by the Commission Internationale de l'Eclairage (CIE) in 1976. It is color space to be used for the specification of color differences. The L* is a correlate to perceived lightness ranging from 0.0 for black to 100.0 for a diffuse white. The a* and b* dimensions correlate approximately with red-green and yellow-blue chroma perceptions. They take on both negative and positive values. Their maximum values are limited by the physical properties of materials. The color difference (ΔE*ab) between two color points. (L*[…]) and (L*2, a*2, b2), is defined by the distance between the two points and computed by ΔE*ab=[(L*2−L*1)^2+(a*2−a*1)^2+(b*2−b*1)^2]^1/2
The cylindrical coordinate system provides predictors of lightness. L*, chroma, C*, and hue, H*. The chroma correlates the colorfulness of an area and the hue correlates the types of colors such as red, green, blue, yellow, etc. The relationship among a*, b*, C* and H* is given by C*=[a*2+b*2]^1/2 H*=tan^−1(b*/a*) a*=C* cos(H*) b*=C* sin(H*)
(§1) The color data was collected on a Gretag-McBeth Spectolino/Spectrascan with 100% coverage patches printed on Kodak Premium Photo Paper. Permanence was evaluated by measuring the relative fade of 0.6 OD yellow block printed on Ilford Printasia Glossy Photo Paper after 504 hours of exposure to 43-kLux cool white fluorescent illumination.

[2] = Permanence: relative fade of 0.6 OD yellow block under fluorescent illumination; conditions: dye alone in ink; for permanence (relative fade): 0.6 OD block on Ilford Printasia Glossy Photo Paper, 504 hours, 43-kLux cool white fluorescent, higher = more fade
Description: as §1

[3] = Aqueous solubility of dye
[4] = 3% by weight, Kodak Premium Photo Paper

C* (chroma) ([1]; 3.4% by weight)	H* (hue) ([1]; 3.4% by weight)	a* ([1]; 3.4% by weight)	b* ([1]; 3.4% by weight)	optical density ([1]; 3.4% by weight)	permanence (relative fade) ([2]; 3.4% by weight)	aqueous solubility [3]	H* (hue) ([1]; 3% by weight)	a* ([1]; 3% by weight)	b* ([1]; 3% by weight)	optical density ([1]; 3% by weight)	C* (chroma) [1, 4]	lightfastness / permanence (in words) ([2]; 3% by weight)	permanence (relative fade) ([2]; 3% by weight)	Compound
106.7	86.9	5.9	106.3	1.7	18%	13%								Direct Yellow 132
						40%	89.5	1.0	110.3	1.5	110.3	extremely poor lightfastness	86.6%	O=C([O-])C1=NN(c2ccc(S(=O)(=O)[O-])cc2)C(=O)C1N=Nc1ccc(S(=O)(=O)[O-])cc1.[Na+].[Na+].[Na+] (centres unmarked) [Acid Yellow 23, reference compound]
						19%	96.3	−10.8	92.6	1.3	93.2	much better permanence	27.9%	Acid Yellow 17
